Results as given in patent US12227536B2, “Crystalline forms of an NRTTI compound” (Merck Sharp & Dohme LLC, priority 2018, dated 2025).

Tests used:
[1] = system: lymphoid derived cell lines and peripheral blood mononuclear cells; settings: in vitro; cited from earlier work
[2] = Solubility of EFdA Forms 1, 2 and 4 in acetonitrile as a function of temperature; type: physicochemical; settings: for Solubility / Solubility Ratio (Form 1/4): acetonitrile; for Form 1 and Form 4 ΔΔG: calculated; for Relative thermodynamic stability of the phase: from solubility in acetonitrile between 25.0 and 65.0 °C
Method: The Gibbs free energy (ΔG) of a phase is the fundamental thermodynamic parameter that determines the relative stability of a polymorphs at a given temperature. The solubility of a particular polymorph is related to the ΔG by the equation ΔG=−RTln (solubility). The polymorph with the lowest solubility is considered to be the thermodynamically stable phase at a given temperature. Table 6 lists the measured solubility for Forms 1, 2 and 4 of EFdA in acetonitrile between 25.0 and 65.0° C. […] The relatively low ΔΔG values for conversion of Form 1 to Form 4 (i.e., the energy gap between Form 1 and Form 4 is small; 0.21-0.35 kJ/mol), combined with the fast crystallization kinetics of Form 1 as compared to Form 4, result in difficulties isolating Form 4 using conventional methods of polymorph screening.

[3] = Critical water activity from solubility in acetonitrile as a function of water content; type: physicochemical; settings: 25 °C
Method: The thermodynamic parameter for the stability of the monohydrate Form MH and anhydrate Form 4 of EFdA is the critical water activity. Below this water activity, anhydrous Form 4 is thermodynamically preferred. Above this water activity, monohydrate Form MH is thermodynamically preferred. The solubility of EFdA monohydrate Form MH and anhydrate Forms 1 and 4 were determined in acetonitrile as a function of water content at 25.0° C. The critical water activity for the EFdA monohydrate/Form 4 system at 25° C. was determined to be 0.3.

[4] = Crystal form stability in hot melt extrusion (HME) of EFdA/EVA implant product, by XRD; type: physicochemical
Method: Anhydrate crystalline Forms 1, 2, and 4 of EFdA were isolated by hot melt extrusion (HME) processing. Micronized ethylene vinyl acetate (EVA) polymer and monohydrate crystalline Form MH of EFdA were blended with a Turbula T2F mixer at various ratios: 30, 35, 40, 45 and 50 wt % drug. The pre-blend was hot melt extruded with an 18 mm Leistritz twin screw extruder with a 25:1 L/D, throughput of 400 g/hr, temperatures ranging from 100-140° C., feed zone at 40° C., and screw speed at 30 rpm. Two screw configurations were used, both predominately consisting of conveying elements with different mixing sections. The less aggressive screw design contained a mixing section consisting of conveying, kneading elements each 15 mm in length, with twisting angles of 30°, 60°, and 60° (“HME low shear Process A”). The more aggressive screw design included additional mixing segments after the mixing section used in the less aggressive design: conveying, kneading elements each 15 mm in length, with a twisting angle of 90° (“HME high shear Process B”). For both extrusion set-ups, the strands were then air-cooled and pelletized to form micropellets. The pellets were then extruded with a ½″ American Kuhne single screw extruder with temperatures ranging from 110-140° C., feed zone at 25° C., and screw speed at 20-25 rpm to form a 2±0.05 mm diameter filament, and then cut to a length of 40±2 mm. […]

Row | SMILES | Solubility ([2]; 25.0 °C) [mg/g solv.] | Solubility ([2]; 35.0 °C) [mg/g solv.] | Solubility ([2]; 45.0 °C) [mg/g solv.] | Solubility ([2]; 55.0 °C) [mg/g solv.] | Solubility ([2]; 65.0 °C) [mg/g solv.] | Relative thermodynamic stability of the phase [2] | further results
1 | C#C[C@]1(COP(=O)(O)OP(=O)(O)OP(=O)(O)O)O[C@@H](n2cnc3c(N)nc(F)nc32)C[C@@H]1O [EFdA-TP] |  |  |  |  |  |  | Intracellular half-life [1]: exceeds 72 hrs
2 | C#C[C@]1(CO)O[C@@H](n2cnc3c(N)nc(F)nc32)C[C@@H]1O [Form 1, 4′-Ethynyl-2-fluoro-2′-deoxyadenosine] | 2.15 ± 0.02 | 2.43 ± 0.01 | 3.44 ± 0.02 | 4.74 ± 0.02 | 6.81 ± 0.03 |  | Solubility Ratio (Form 1/4) ([2]; 25.0 °C): 1.15; Solubility Ratio (Form 1/4) ([2]; 35.0 °C): 1.13; Solubility Ratio (Form 1/4) ([2]; 45.0 °C): 1.08; Solubility Ratio (Form 1/4) ([2]; 55.0 °C): 1.12; Solubility Ratio (Form 1/4) ([2]; 65.0 °C): 1.13; ΔΔG for conversion of Form 1 to Form 4 (energy gap) ([2]; between 25.0 and 65.0 °C): 0.0502 to 0.0837 kcal/mol; Form 1 and Form 4 ΔΔG ([2]; 25.0 °C): 0.0837 kcal/mol; Form 1 and Form 4 ΔΔG ([2]; 35.0 °C): 0.0789 kcal/mol; Form 1 and Form 4 ΔΔG ([2]; 45.0 °C): 0.0502 kcal/mol; Form 1 and Form 4 ΔΔG ([2]; 55.0 °C): 0.0717 kcal/mol; Form 1 and Form 4 ΔΔG ([2]; 65.0 °C): 0.0789 kcal/mol
3 | C#C[C@]1(CO)O[C@@H](n2cnc3c(N)nc(F)nc32)C[C@@H]1O [Form MH, 4′-Ethynyl-2-fluoro-2′-deoxyadenosine] |  |  |  |  |  |  | Crystal form after HME processing ([4]; HME high shear Process B): converted the Form MH phase into anhydrate Form 4; Crystal form after HME processing ([4]; HME low shear Process A): converted the Form MH phase into anhydrate Form 1 and anhydrate Form 2

The next lines start with results.

Row | Solubility ([2]; 25.0 °C) [mg/g solv.] | Solubility ([2]; 35.0 °C) [mg/g solv.] | Solubility ([2]; 45.0 °C) [mg/g solv.] | Solubility ([2]; 55.0 °C) [mg/g solv.] | Solubility ([2]; 65.0 °C) [mg/g solv.] | Relative thermodynamic stability of the phase [2] | SMILES | further results
4 | 2.43 ± 0.01 | 3.20 ± 0.03 | 4.39 ± 0.04 | 5.79 ± 0.09 | 7.72 ± 0.12 | least stable phase | C#C[C@]1(CO)O[C@@H](n2cnc3c(N)nc(F)nc32)C[C@@H]1O [Form 2, 4′-Ethynyl-2-fluoro-2′-deoxyadenosine] | 
5 | 1.87 ± 0.02 | 2.14 ± 0.02 | 3.18 ± 0.01 | 4.24 ± 0.01 | 6.05 ± 0.05 | most thermodynamically stable phase | C#C[C@]1(CO)O[C@@H](n2cnc3c(N)nc(F)nc32)C[C@@H]1O [Form 4, 4′-Ethynyl-2-fluoro-2′-deoxyadenosine] | Critical water activity, EFdA monohydrate/Form 4 system [3]: 0.3
